Where two headings read alike, the source gives them in different places.
Key:
[1] = cited from earlier work; for block or reversal of the (+)-morphine-induced attenuation of systemic (−)-morphine-produced antinociception: pretreatment
mice = assay: Tail-flick response after intrathecal injection, mouse spinal cord; conditions: for (−)-morphine-produced tail-flick inhibition after pretreatment given alone (did not affect): 10 μg intrathecal alone, 45 min before (−)-morphine 1 μg, measured 15 min after; for reversal of the (+)-morphine-induced attenuation of (−)-morphine-produced tail-flick inhibition: intrathecal with (+)-morphine 10 pg, BD1047 1-10 μg, (+)-pentazocine 0.1-10 μg, in a dose-dependent manner
[2] = system: extracellular dopamine in the Acb shell; assay: Microdialysis of extracellular dopamine in the Acb shell after microinjection into the VTA, urethane-anesthetized rats; assay type: in vivo, rat
Protocol: Groups of rats were microinjected with endomorphin-1 (1, 3 or 10 μg) or vehicle into the VTA (A). In other groups of rats, (−)-naloxone (4 or 40 ng) or vehicle was co-microinjected into the VTA with endomorphin-1 (10 μg). The perfusates from the microdialysis probe at the nucleus accumbens shell were collected every 15 min from 30 min before microinjection and continuously collected for another 120 min (A) or 105 min (B) after microinjection. The perfusates were then analyzed their dopamine level. […] (B) For the group of rats injected with different dose of (−)-naloxone+endomorphin-1 versus vehicle+endomorphin-1, Finteraction (18, 150)=3.338, Ftreatment (2, 150)=7.671, Ftime (9, 150)=11.17, *P<0.01; only the data of the dopamine level after the 0 min time point were used for the statistic analysis; the group of rats microinjected with vehicle alone in (B) was not included in the statistic analysis.
. The perfusates were then analyzed their dopamine level. […]; only the data of the dopamine level after the 0 min time point were used for statistic analysis; the vehicle pretreatment followed by vehicle microinjected group was not included in the statistic analysis.
Groups of rats were microinjected with a various dose of endomorphin-1 (1, 3 and 10 μg) or vehicle given into the VTA and the release of dopamine from the Acb shell were studied. […] The dopamine level returned to baseline 60 min thereafter (FIG. 8A). To determine if the increased release of dopamine induced by endomorphin-1 is mediated by the stimulation of μ-opioid receptors, the effect of (−)-naloxone on the increased release of dopamine induced by endomorphin-1 was then studied.

rats [3] = system: rats
rats [4] = assay: Conditioned place preference (CPP), drugs given systemically; assay type: in vivo, rat; conditions: for effect given alone on baseline place conditioning (CPP or conditioned place aversion): 3 μg/kg i.p. alone, rats treated s.c. with saline vehicle
rats [5] = assay: Conditioned place preference, (−)-morphine and (+)-morphine microinjected into the Acb shell; assay type: in vivo, rat
[6] = cited from earlier work; for production of conditioned place preference or aversion: 4 mg/kg s.c., given systemically, Mucha and Herz 1986; for block of the CPP produced by (−)-morphine: Olmstead and Burns 2005

## CC(C)=CCN1CCC2(C)c3cc(O)ccc3CC1C2C (single isomer, unassigned; (+)) [(+)-pentazocine]
[1]; 13 μg against morphine 700 ng, mice, Mei and Pasternak 2002
  effect against morphine, both given spinally: without effect against morphine
[1]; 5 or 10 mg/kg, Chien and Pasternak 1994
  effect on (−)-morphine-produced analgesia, systemic administration: antagonizes (−)-morphine-produced analgesia
mice
  (−)-morphine-produced tail-flick inhibition after pretreatment given alone (did not affect): 8.89 ± 0.53 s
  reversal of the (+)-morphine-induced attenuation of (−)-morphine-produced tail-flick inhibition: reversed

## CN1CC[C@]23c4c5ccc(O)c4O[C@H]2[C@@H](O)C=C[C@H]3[C@H]1C5 [(+)-morphine]
[2]; 3 pg into the VTA, 45 min before endomorphin-1 10 μg
  block of the endomorphin-1-induced increase of extracellular dopamine: completely blocked the increase of the extracellular dopamine in the Acb shell
[2]; microinjection into the VTA
  effect on basal levels of extracellular dopamine: did not affect the basal levels of extracellular dopamine in the Acb shell
Rats [3]; 0.3 pg into the Acb, nicotine 20 μg
  block of the nicotine-produced increase of conditioned place preference at single dose: completely block the nicotine-produced increase of the conditioned place preference
Rats [3]; pretreatment 0.03 to 3 pg into the Acb, nicotine 20 μg
  block of the nicotine-produced increase of conditioned place preference: blocked dose-dependently
Rats [4]
  effect given alone on baseline place conditioning (CPP or conditioned place aversion): did not affect the baseline place conditioning
Rats [4]; listed as dextro-morphine
  effect given alone on baseline place conditioning (CPP or conditioned place aversion): did not produce CPP nor conditioned place aversion
Rats [4]; i.p. pretreatment 100 μg/kg, 1 h before (−)-morphine sulfate 5 mg/kg s.c.
  attenuation of (−)-morphine-produced CPP at higher dose: did not attenuate the (−)-morphine-produced CPP
Rats [4]; i.p. pretreatment 0.1 to 3 μg/kg, 1 h before (−)-morphine sulfate 5 mg/kg s.c.
  attenuation of (−)-morphine-produced CPP: dose-dependently attenuated the (−)-morphine-produced CPP
Rats [4]; i.p., dose range 0.1 to 100 μg/kg
  dose of maximal inhibition of the morphine-produced CPP (U-shaped dose-response curve): 3 µg/kg
Rats [5]; 0.1 to 10 pg into the Acb shell, 45 min before (−)-morphine 5 μg, same site
  attenuation of (−)-morphine-produced conditioned place preference: dose-dependently attenuated the (−)-morphine-produced conditioned place preference
Rats [5]; 3 to 100 pg into the Acb shell, alone
  production of conditioned place preference given alone: did not produce any conditioned place preference
Rats [5]; 30, 100 and 1000 pg into the Acb shell, 45 min before (−)-morphine 5 μg
  attenuation of (−)-morphine-produced conditioned place preference at higher doses: did not attenuate the (+)-morphine-produced conditioned place preference
Rats [5]; into the Acb shell, dose range 0.1 to 1000 pg
  dose of maximal inhibition (U-shape dose-response curve): 3 pg
[1]; pretreated systemically, Wu et al., 2007
  attenuation of antinociception produced by (−)-morphine given systemically: attenuates the antinociception produced by (−)-morphine given systemically
[6]
  production of conditioned place preference or aversion: does not produce any conditioned place preference nor does it produce any conditioned place aversion
mice; 10 pg intrathecal, 45 min before (−)-morphine 1 μg intrathecal
  effect on (−)-morphine-produced tail-flick inhibition: attenuated the (−)-morphine-produced tail-flick inhibition

## C=CCN1CC[C@]23c4c5ccc(O)c4O[C@H]2C(=O)CC[C@]3(O)[C@H]1C5 [(+)-naloxone]
[1]; Wu et al., 2007
  block or reversal of the (+)-morphine-induced attenuation of systemic (−)-morphine-produced antinociception: blocked or reversed

## CN1CC[C@]23c4c5ccc(O)c4O[C@H]2[C@@H](O)C=C[C@H]3[C@H]1C5.O=S(=O)(O)O [(−)-morphine sulfate, (−)-Morphine sulfate]
Rats [4]; rats, s.c., 10 mg/kg
  production of CPP at higher dose: produced no more increase of the CPP
Rats [4]; rats, s.c., 1 and 5 mg/kg
  production of CPP: dose-dependently produced CPP
Rats [5]; 10 μg into the Acb shell
  production of conditioned place preference at higher dose: produced no further increase of conditioned place preference
Rats [5]; 2.5 or 5 μg into the Acb shell
  production of conditioned place preference: dose-dependently produced conditioned place preference
[6]
  production of conditioned place preference or aversion: produces marked conditioned place preference

## Br.Br.CN(C)CCN(C)CCc1ccc(Cl)c(Cl)c1 [BD1047, N-[2-(3,4-Dichlorophenyl)ethyl]-N-methyl-2-(dimethylamino)ethylamine dihydrobromide]
Rats [4]; 3 mg/kg i.p. alone, morphine sulfate 5 mg/kg s.c.
  effect given alone on the morphine-produced CPP: did not affect the morphine-produced CPP
Rats [4]; 3 mg/kg i.p. alone, rats treated with saline vehicle
  effect given alone on baseline place preference: nor did it affect the baseline place preference
Rats [4]; 1, 3 or 6 mg/kg i.p. with (+)-morphine 3 μg/kg, 1 h before morphine sulfate 5 mg/kg s.c.
  reversal of the attenuation of (−)-morphine-produced CPP induced by (+)-morphine: dose-dependently reversed the attenuation of the morphine-produced CPP
[1]; Wu et al., 2007
  block or reversal of the (+)-morphine-induced attenuation of systemic (−)-morphine-produced antinociception: blocked or reversed
mice
  (−)-morphine-produced tail-flick inhibition after pretreatment given alone (did not affect): 9.19 ± 0.42 s
  reversal of the (+)-morphine-induced attenuation of (−)-morphine-produced tail-flick inhibition: reversed

## C=CCN1CC[C@]23c4c5ccc(O)c4O[C@H]2/C(=N/N=C2\CC[C@@]4(O)[C@H]6Cc7ccc(O)c8c7[C@@]4(CCN6CC=C)[C@H]2O8)CC[C@@]3(O)[C@H]1C5 [naloxonazine]
[6]
  block of the CPP produced by (−)-morphine: blocked

## O=C1CC[C@@]2(O)[C@H]3Cc4ccc(O)c5c4[C@@]2(CCN3CC2CC2)[C@H]1O5 [naltrexone]
[6]
  block of the CPP produced by (−)-morphine: blocked

## CN1CCCC1c1cccnc1 (stereo not shown) [nicotine]
Rats [3]; 40 μg microinjected into the Acb
  production of conditioned place preference at higher dose: produced less increase of the conditioned place preference than that of 20 μg of nicotine
Rats [3]; 5 to 20 μg microinjected into the Acb
  production of conditioned place preference: dose-dependently increased the conditioned place preference

## (−)-naloxone
[2]; 40 ng co-administered into the VTA with endomorphin-1 10 μg
  attenuation of the endomorphin-1-induced increase of extracellular dopamine: attenuated the increase of the extracellular dopamine in the Acb shell
[1]; Wu et al., 2007
  block or reversal of the (+)-morphine-induced attenuation of systemic (−)-morphine-produced antinociception: blocked or reversed

## Endomorphin-1
[2]; 10 μg into the VTA, 15 min after injection
  extracellular dopamine in the Acb shell: caused an increase of the extracellular dopamine in the Acb shell
[2]; 10 μg into the VTA, thereafter
  time for the dopamine level to return to baseline: 60 min
